# Experiments:
# ETC complex II = ETC complex II activity after ascorbate exposure; format: cell-based, human; conditions: 15 pmol cell^−1 ascorbate for 1 h, NSCLC cell lysates
# Experimental: (§1) Exponentially growing cells were scraped and frozen as dry pellets until assayed for total activity. Aconitase activity was measured as the rate of appearance of NADPH (at 340 nm; Beckman DU 800 spectrophotometer, Brea, Calif.) for 45 min during the reaction of 200 μg total sample protein with 200 μM NADP^+ and 10 U isocitrate dehydrogenase as previously described (Case et al., 2011). Maximal ETC complex activity was measured as previously described (Birch-Machin et al., 1994). Complex I activity was quantified as the rate of rotenone-inhibitable NADH oxidation (320 nm; c=6.22 mM^−1 cm^−1). Complex II activity as the difference in the rate of DCIP reduction in the presence and absence of succinate (at 600 nm; ε=19.1 mM^−1 cm^−1). Complex IV activity was assayed as the rate of oxidation of cytochrome c ([…]; ε=19.6 mM^−1 cm^−1). Rates of activities were normalized to total protein by Lowry.
# (§2) Exponentially growing cells were scraped and frozen as dry pellets until assayed for protein content (Lowry) and maximal ETC complex activity as previously described (Birch-Machin et al., 1994). Briefly, dry cell pellets were resuspended in 20 mM potassium phosphate buffer and sonicated 3×10 s each. Rates of activities were normalized to total protein. Complex I activity was quantified as the rate of rotenone-inhibitable NADH oxidation (320 nm; ε=6.22 mM-1 cm-1). […]
# NCI-H292 xenografts = system: NCI-H292 xenografts
# Experimental: Nude mice were injected with NCI-H292 cells into their flanks and tumors grown to a diameter of 2-4 mm.
# (§3) Female 4-6 week old female athymic-nu/nu mice were purchased from Envigo (previously Harlan Laboratories) and housed in the Animal Care Facility at the University of Iowa (Iowa City, Iowa), and all procedures were approved by the University of Iowa Institutional Animal Care and Use Committee and conformed to NIH guidelines. 1×10^6 H292 or U87 cells were injected subcutaneously into the right rear flank and mice were euthanized and sacrificed when tumor length exceeded 1.5 cm in any dimension. Treatment regimens were as described in the text and are summarized in the Supplemental Experimental Procedures.
# as §3, with “flank. […] Tumors were measured every other day with Vernier calipers (volume=(length×width×(width/2))” for “flank”, “dimension.” for “dimension. Treatment regimens were as described in the text and are summarized in the Supplemental Experimental Procedures.”
# ARP1 = assay: Colony formation on soft agar, ARP1 myeloma cells; format: cell-based, human; conditions: 1 h treatment, colonies after 10-14 days
# Source text: (§4) A two-layer agar system was used, and colonies were visualized after 10-14 days.
# OCI-MY5 = assay: Colony formation on soft agar, OCI-MY5 myeloma cells; format: cell-based, human; conditions: 1 h treatment, colonies after 10-14 days
# Source text: as §4
# ETC complex I = ETC complex I activity after ascorbate exposure; format: cell-based, human; conditions: 15 pmol cell^−1 ascorbate for 1 h, NSCLC cell lysates
# Experimental: as §1, §2
# GBM cells = assay: Cellular labile iron pool (Calcein-AM flow cytometry), GBM cells; format: cell-based, human; conditions: increasing doses of ascorbate
# Experimental: (§5) The labile iron pool (LIP) was visualized using the fluorescent dye Calcein-AM as previously described (Epsztejn et al., 1997) with modifications. After labeling, samples were divided into two flow cytometry sample tubes, to which 100 μM 2′,2′-bipyridyl (BIP) was added to one tube and analyzed by flow cytometry. BIP tubes were incubated for at least 15 minutes before analysis to allow for full chelation of intracellular labile iron. The LIP (A.U.)=MFIBIP−MFINoBIP was normalized against the control samples to calculate the relative labile iron pool.
# (§6) The labile iron pool (LIP) was visualized using the fluorescent dye Calcein-AM as previously described with modifications (Epsztejn et al., 1997). Briefly, after sample treatment, cells were trypsinized, spun at 1,200 rpm for 5 min, and resuspended at approximately 1×10^6 cells mL-1 in 500 nM Calcein-AM in PBS. Samples were incubated for 15 min at 4% O2 in a humidity controlled environment (37° C., 5% CO2). Subsequently, samples were pelleted, washed in PBS, and resuspended in 1 mL PBS before dividing each sample into two flow cytometry sample tubes, to which 100 μM 2′,2′-bipyridyl (BIP) was added to one tube. Samples were kept at room temperature and analyzed on a LSR II Flow Cytometer (BD Biosciences; λex=488 nm, λem=515/20 nm). […]
# OPM2 = assay: Colony formation on soft agar, OPM2 myeloma cells; format: cell-based, human; conditions: 1 h treatment, colonies after 10-14 days
# Source text: as §4
# HBEpCs = assay: Cellular labile iron pool (Calcein-AM flow cytometry), HBEpCs; format: cell-based, human; conditions: increasing doses of ascorbate
# Experimental: as §5, §6
# ARP1 myeloma cells = assay: Luciferase-labeled ARP1 myeloma xenograft, intravenous injection, NOD-SCID mice; format: in vivo; conditions: ascorbate 4 g/kg daily
# Source text: The first model used is a luciferase labeled human myeloma cell line ARP1.
# NHAs = assay: Cellular labile iron pool (Calcein-AM flow cytometry), NHAs; format: cell-based, human; conditions: increasing doses of ascorbate
# Experimental: as §5, §6
smiles,measurement,setting,value
"O=C1O[C@H]([C@@H](O)CO)C(O)=C1O [ascorbate, L-ascorbic acid]",ETC complex II activity,ETC complex II,inactivation
same,survival of xenograft-bearing mice,NCI-H292 xenografts; Example 1: ascorbate 4 g/kg IP daily + 12 Gy/6fx IR + weekly 15 mg/kg carboplatin vs chemo-radiation alone,survived significantly longer
same,tolerability (lack of weight loss),"NCI-H292 xenografts; Example 1: ascorbate 4 g/kg IP daily, alone or with chemo-radiation",well-tolerated
same,tolerability (mouse weight),NCI-H292 xenografts; Example 4: ascorbate 4 g kg^−1 IP daily,well tolerated
same,overall survival,NCI-H292 xenografts; Example 4: ascorbate 4 g kg^−1 IP daily + 12 Gy IR/2 fractions + weekly 15 mg kg^−1 CPL,significantly increased overall survival
same,ascorbate dose giving complete growth inhibition (colony formation),ARP1,≥ 10 pmol/cell
same,ascorbate dose giving complete growth inhibition (colony formation),OCI-MY5,≥ 10 pmol/cell
same,ETC complex I activity,ETC complex I,inactivation
same,cellular LIP after ascorbate,GBM cells,significant dose-dependent ascorbate-induced increases in cellular LIP
same,ascorbate dose giving complete growth inhibition (colony formation),OPM2,≥ 10 pmol/cell
same,cellular LIP after ascorbate,HBEpCs,not seen
same,tumor growth rate,ARP1 myeloma cells,significantly decreased tumor growth rate
same,decrease of mean tumor fluorescent intensity vs control,ARP1 myeloma cells; approximately 15 days,59%
same,cellular LIP after ascorbate,NHAs,not seen
